Results from patent US10765639B2, “Nanocapsules, methods of manufacture and uses thereof” (ADISSEO FRANCE S.A.S., priority 2016, dated 2020).

Experiments:
[1] = Bioavailability of TAC in vivo in roosters (plasma free tocopherol after force-feeding); design: species or system ISA Brown roosters; AUC 24 h (Room 1) / AUC 96 h (Room 1) / AUC 24 h (Room 2) / AUC 96 h (Room 2): concentration or dose not given beside the values; conditions: for AUC 24 h (Room 1) / AUC 96 h (Room 1): Room 1, force-feeding; for AUC 24 h (Room 2) / AUC 96 h (Room 2): Room 2, force-feeding
Source text: The experimental scheme is described in detail in Preveraud et al. 2015, British Poultry Science, 56: 1; 94-102.
Briefly, two rooms with 60 ISA Brown roosters are placed in individual cages. One week before assigning the treatments, the roosters are fed with a feed devoid of vitamin E.
The roosters (n=10 roosters per treatment) were force-fed with different TAC solutions in water.
Room 1: Dry nanocapsules C24 of example 1, • TOL and TAC, in the form of oil, as a blank
Room 2: C40 dry nanocapsules of example 1, • TOL and TAC, in the form of oil, as a blank.
After the force-feeding administration of the vitamin E products put in a capsule, blood samples were taken at 0, 6, 12, 24, 48 and 96 h post force-feeding. After centrifugation, the plasma is decanted and the free tocopherol is measured up by HPLC.

[2] = oral administration, native vitamin E; cited from earlier work

Row | Molecule | AUC 24 h (Room 1) [1] | AUC 96 h (Room 1) [1] | AUC 24 h (Room 2) [1] | AUC 96 h (Room 2) [1] | %/TAC 24 h (Room 1) ([1]; Room 1, 24 h, diffusion percentage relative to TAC) | %/TAC 96 h (Room 1) ([1]; Room 1, 96 h, diffusion percentage relative to TAC) | %/TAC 24 h (Room 2) ([1]; Room 2, 24 h, diffusion percentage relative to TAC) | %/TAC 96 h (Room 2) ([1]; Room 2, 96 h, diffusion percentage relative to TAC) | Bioavailability in animals when orally administered [2]
1 | CC(=O)Oc1c(C)c(C)c2c(c1C)CCC(C)(CCC[C@H](C)CCC[C@H](C)CCCC(C)C)O2 (stereo partly drawn) [TAC, alpha-tocopherol acetate] | 206 µg/mL/h | 597 µg/mL/h | 142 µg/mL/h | 340 µg/mL/h | – | – | – | – | –
2 | tocopherol [TOL] | 307 µg/mL/h | 1193 µg/mL/h | 309 µg/mL/h | 320 µg/mL/h | +49% | +100% | +118% | +124% | ≤ 50%
